Data published in patent publication US20140348819A1, “Methods of Treating Cancer” (Dana-Farber Cancer Institute, Inc., priority 2011, published 2014).

Tested on: six V600E BRAF melanoma cell lines
Experiment: Screening of recombinant RTK ligands for ability to confer resistance to BRAFi (PLX4720) or MEKi (PD184352) (Table 4)
Format: cell-based, human
Set-up: ability of recombinant RTK ligand to confer resistance / ability of recombinant RTK ligand to confer resistance (screening value): scale not given here
Protocol: HGF is the only one that can substantially confer drug resistance to the cell lines.
The complexity of the tumor microenvironment is much greater than an in vitro co-culture system. Therefore, the inventors explored whether the activation of other RTKs could result in a similar resistance as that observed with the activation of MET. To this end, six V600E BRAF melanoma cell lines were tested for their resistance to either BRAFi (PLX4720) or MEKi (PD184352) after the addition of 22 RTK ligands that have the potential of activating almost all known RTKs. […] The activation of a selected subset of these RTKs was confirmed by western blotting and by high throughput tyrosine kinase phosphorylation profiling.

[1] = A2058, PD184352 - 1 uM, ligand 0.4 ng/ml
[2] = A2058, PD184352 - 1 uM, ligand 1.6 ng/ml
[3] = A2058, PD184352 - 1 uM, ligand 6.25 ng/ml
[4] = A2058, PD184352 - 1 uM, ligand 25 ng/ml
[5] = A2058, PD184352 - 1 uM, ligand 100 ng/ml
[6] = A2058, PLX4720 - 2 uM, ligand 0.4 ng/ml
[7] = A2058, PLX4720 - 2 uM, ligand 1.6 ng/ml
[8] = A2058, PLX4720 - 2 uM, ligand 6.25 ng/ml
[9] = A2058, PLX4720 - 2 uM, ligand 25 ng/ml
[10] = A2058, PLX4720 - 2 uM, ligand 100 ng/ml
[11] = C32, PD184352 - 1 uM, ligand 0.4 ng/ml
[12] = C32, PD184352 - 1 uM, ligand 1.6 ng/ml
[13] = C32, PD184352 - 1 uM, ligand 6.25 ng/ml
[14] = C32, PD184352 - 1 uM, ligand 25 ng/ml
[15] = C32, PD184352 - 1 uM, ligand 100 ng/ml
[16] = C32, PLX4720 - 2 uM, ligand 0.4 ng/ml
[17] = C32, PLX4720 - 2 uM, ligand 1.6 ng/ml
[18] = C32, PLX4720 - 2 uM, ligand 6.25 ng/ml
[19] = C32, PLX4720 - 2 uM, ligand 25 ng/ml
[20] = C32, PLX4720 - 2 uM, ligand 100 ng/ml
[21] = Colo 829, PD184352 - 1 uM, ligand 0.4 ng/ml
[22] = Colo 829, PD184352 - 1 uM, ligand 1.6 ng/ml
[23] = Colo 829, PD184352 - 1 uM, ligand 6.25 ng/ml
[24] = Colo 829, PD184352 - 1 uM, ligand 25 ng/ml
[25] = Colo 829, PD184352 - 1 uM, ligand 100 ng/ml
[26] = Colo 829, PLX4720 - 2 uM, ligand 0.4 ng/ml
[27] = Colo 829, PLX4720 - 2 uM, ligand 1.6 ng/ml
[28] = Colo 829, PLX4720 - 2 uM, ligand 6.25 ng/ml
[29] = Colo 829, PLX4720 - 2 uM, ligand 25 ng/ml
[30] = Colo 829, PLX4720 - 2 uM, ligand 100 ng/ml
[31] = G-361, PD184352 - 1 uM, ligand 0.4 ng/ml
[32] = G-361, PD184352 - 1 uM, ligand 1.6 ng/ml
[33] = G-361, PD184352 - 1 uM, ligand 6.25 ng/ml
[34] = G-361, PD184352 - 1 uM, ligand 25 ng/ml
[35] = G-361, PD184352 - 1 uM, ligand 100 ng/ml
[36] = G-361, PLX4720 - 2 uM, ligand 0.4 ng/ml
[37] = G-361, PLX4720 - 2 uM, ligand 1.6 ng/ml
[38] = G-361, PLX4720 - 2 uM, ligand 6.25 ng/ml
[39] = G-361, PLX4720 - 2 uM, ligand 25 ng/ml
[40] = G-361, PLX4720 - 2 uM, ligand 100 ng/ml
[41] = SK-MEL-5, PD184352 - 1 uM, ligand 0.4 ng/ml
[42] = SK-MEL-5, PD184352 - 1 uM, ligand 1.6 ng/ml
[43] = SK-MEL-5, PD184352 - 1 uM, ligand 6.25 ng/ml
[44] = SK-MEL-5, PD184352 - 1 uM, ligand 25 ng/ml
[45] = SK-MEL-5, PD184352 - 1 uM, ligand 100 ng/ml
[46] = SK-MEL-5, PLX4720 - 2 uM, ligand 0.4 ng/ml
[47] = SK-MEL-5, PLX4720 - 2 uM, ligand 1.6 ng/ml
[48] = SK-MEL-5, PLX4720 - 2 uM, ligand 6.25 ng/ml
[49] = SK-MEL-5, PLX4720 - 2 uM, ligand 25 ng/ml
[50] = SK-MEL-5, PLX4720 - 2 uM, ligand 100 ng/ml
[51] = SK-MEL-28, PD184352 - 1 uM, ligand 0.4 ng/ml
[52] = SK-MEL-28, PD184352 - 1 uM, ligand 1.6 ng/ml
[53] = SK-MEL-28, PD184352 - 1 uM, ligand 6.25 ng/ml
[54] = SK-MEL-28, PD184352 - 1 uM, ligand 25 ng/ml
[55] = SK-MEL-28, PD184352 - 1 uM, ligand 100 ng/ml
[56] = SK-MEL-28, PLX4720 - 2 uM, ligand 0.4 ng/ml
[57] = SK-MEL-28, PLX4720 - 2 uM, ligand 1.6 ng/ml
[58] = SK-MEL-28, PLX4720 - 2 uM, ligand 6.25 ng/ml
[59] = SK-MEL-28, PLX4720 - 2 uM, ligand 25 ng/ml
[60] = SK-MEL-28, PLX4720 - 2 uM, ligand 100 ng/ml

Substance: NGF
- ability of recombinant RTK ligand to confer resistance [1]: 0.98
- ability of recombinant RTK ligand to confer resistance [2]: 0.95
- ability of recombinant RTK ligand to confer resistance [3]: 1.09
- ability of recombinant RTK ligand to confer resistance [4]: 0.99
- ability of recombinant RTK ligand to confer resistance [5]: 0.99
- ability of recombinant RTK ligand to confer resistance [6]: 1.04
- ability of recombinant RTK ligand to confer resistance [7]: 1.02
- ability of recombinant RTK ligand to confer resistance [8]: 1.06
- ability of recombinant RTK ligand to confer resistance [9]: 1.07
- ability of recombinant RTK ligand to confer resistance [10]: 0.98
- ability of recombinant RTK ligand to confer resistance [11]: 1.00
- ability of recombinant RTK ligand to confer resistance [12]: 1.07
- ability of recombinant RTK ligand to confer resistance [13]: 1.07
- ability of recombinant RTK ligand to confer resistance [14]: 0.98
- ability of recombinant RTK ligand to confer resistance [15]: 1.03
- ability of recombinant RTK ligand to confer resistance [16]: 0.98
- ability of recombinant RTK ligand to confer resistance [17]: 0.98
- ability of recombinant RTK ligand to confer resistance [18]: 1.03
- ability of recombinant RTK ligand to confer resistance [19]: 0.97
- ability of recombinant RTK ligand to confer resistance [20]: 0.87
- ability of recombinant RTK ligand to confer resistance [21]: 1.04
- ability of recombinant RTK ligand to confer resistance [22]: 1.03
- ability of recombinant RTK ligand to confer resistance [23]: 1.04
- ability of recombinant RTK ligand to confer resistance [24]: 0.94
- ability of recombinant RTK ligand to confer resistance [25]: 1.02
- ability of recombinant RTK ligand to confer resistance [26]: 0.96
- ability of recombinant RTK ligand to confer resistance [27]: 0.96
- ability of recombinant RTK ligand to confer resistance [28]: 1.02
- ability of recombinant RTK ligand to confer resistance [29]: 0.96
- ability of recombinant RTK ligand to confer resistance [30]: 1.03
- ability of recombinant RTK ligand to confer resistance [31]: 1.09
- ability of recombinant RTK ligand to confer resistance [32]: 0.78
- ability of recombinant RTK ligand to confer resistance [33]: 0.97
- ability of recombinant RTK ligand to confer resistance [34]: 0.85
- ability of recombinant RTK ligand to confer resistance [35]: 0.94
- ability of recombinant RTK ligand to confer resistance [36]: 1.10
- ability of recombinant RTK ligand to confer resistance [37]: 0.87
- ability of recombinant RTK ligand to confer resistance [38]: 0.91
- ability of recombinant RTK ligand to confer resistance [39]: 0.92
- ability of recombinant RTK ligand to confer resistance [40]: 0.94
- ability of recombinant RTK ligand to confer resistance [41]: 1.03
- ability of recombinant RTK ligand to confer resistance [42]: 1.04
- ability of recombinant RTK ligand to confer resistance [43]: 0.96
- ability of recombinant RTK ligand to confer resistance [44]: 1.07
- ability of recombinant RTK ligand to confer resistance [45]: 1.09
- ability of recombinant RTK ligand to confer resistance [46]: 1.00
- ability of recombinant RTK ligand to confer resistance [47]: 1.03
- ability of recombinant RTK ligand to confer resistance [48]: 0.85
- ability of recombinant RTK ligand to confer resistance [49]: 0.93
- ability of recombinant RTK ligand to confer resistance [50]: 0.92
- ability of recombinant RTK ligand to confer resistance [51]: 0.91
- ability of recombinant RTK ligand to confer resistance [52]: 0.92
- ability of recombinant RTK ligand to confer resistance [53]: 0.99
- ability of recombinant RTK ligand to confer resistance [54]: 0.96
- ability of recombinant RTK ligand to confer resistance [55]: 1.08
- ability of recombinant RTK ligand to confer resistance [56]: 0.89
- ability of recombinant RTK ligand to confer resistance [57]: 0.97
- ability of recombinant RTK ligand to confer resistance [58]: 1.05
- ability of recombinant RTK ligand to confer resistance [59]: 1.00
- ability of recombinant RTK ligand to confer resistance [60]: 1.12

Substance: NT3
- ability of recombinant RTK ligand to confer resistance [1]: 1.04
- ability of recombinant RTK ligand to confer resistance [2]: 1.13
- ability of recombinant RTK ligand to confer resistance [3]: 1.08
- ability of recombinant RTK ligand to confer resistance [4]: 1.01
- ability of recombinant RTK ligand to confer resistance [5]: 0.90
- ability of recombinant RTK ligand to confer resistance [6]: 1.02
- ability of recombinant RTK ligand to confer resistance [7]: 1.16
- ability of recombinant RTK ligand to confer resistance [8]: 1.09
- ability of recombinant RTK ligand to confer resistance [9]: 1.02
- ability of recombinant RTK ligand to confer resistance [10]: 0.93
- ability of recombinant RTK ligand to confer resistance [11]: 0.98
- ability of recombinant RTK ligand to confer resistance [12]: 1.02
- ability of recombinant RTK ligand to confer resistance [13]: 0.93
- ability of recombinant RTK ligand to confer resistance [14]: 0.95
- ability of recombinant RTK ligand to confer resistance [15]: 0.88
- ability of recombinant RTK ligand to confer resistance [16]: 1.00
- ability of recombinant RTK ligand to confer resistance [17]: 1.03
- ability of recombinant RTK ligand to confer resistance [18]: 0.91
- ability of recombinant RTK ligand to confer resistance [19]: 1.00
- ability of recombinant RTK ligand to confer resistance [20]: 0.95
- ability of recombinant RTK ligand to confer resistance [21]: 1.07
- ability of recombinant RTK ligand to confer resistance [22]: 1.16
- ability of recombinant RTK ligand to confer resistance [23]: 1.02
- ability of recombinant RTK ligand to confer resistance [24]: 1.07
- ability of recombinant RTK ligand to confer resistance [25]: 1.03
- ability of recombinant RTK ligand to confer resistance [26]: 1.03
- ability of recombinant RTK ligand to confer resistance [27]: 1.15
- ability of recombinant RTK ligand to confer resistance [28]: 1.00
- ability of recombinant RTK ligand to confer resistance [29]: 1.09
- ability of recombinant RTK ligand to confer resistance [30]: 1.04
- ability of recombinant RTK ligand to confer resistance [31]: 0.98
- ability of recombinant RTK ligand to confer resistance [32]: 0.98
- ability of recombinant RTK ligand to confer resistance [33]: 1.01
- ability of recombinant RTK ligand to confer resistance [34]: 1.05
- ability of recombinant RTK ligand to confer resistance [35]: 0.88
- ability of recombinant RTK ligand to confer resistance [36]: 0.95
- ability of recombinant RTK ligand to confer resistance [37]: 0.98
- ability of recombinant RTK ligand to confer resistance [38]: 1.00
- ability of recombinant RTK ligand to confer resistance [39]: 0.98
- ability of recombinant RTK ligand to confer resistance [40]: 0.84
- ability of recombinant RTK ligand to confer resistance [41]: 1.02
- ability of recombinant RTK ligand to confer resistance [42]: 1.08
- ability of recombinant RTK ligand to confer resistance [43]: 1.00
- ability of recombinant RTK ligand to confer resistance [44]: 0.94
- ability of recombinant RTK ligand to confer resistance [45]: 1.04
- ability of recombinant RTK ligand to confer resistance [46]: 0.99
- ability of recombinant RTK ligand to confer resistance [47]: 1.02
- ability of recombinant RTK ligand to confer resistance [48]: 0.93
- ability of recombinant RTK ligand to confer resistance [49]: 0.98
- ability of recombinant RTK ligand to confer resistance [50]: 1.09
- ability of recombinant RTK ligand to confer resistance [51]: 1.02
- ability of recombinant RTK ligand to confer resistance [52]: 0.97
- ability of recombinant RTK ligand to confer resistance [53]: 0.99
- ability of recombinant RTK ligand to confer resistance [54]: 1.15
- ability of recombinant RTK ligand to confer resistance [55]: 0.96
- ability of recombinant RTK ligand to confer resistance [56]: 0.95
- ability of recombinant RTK ligand to confer resistance [57]: 1.05
- ability of recombinant RTK ligand to confer resistance [58]: 0.89
- ability of recombinant RTK ligand to confer resistance [59]: 1.14
- ability of recombinant RTK ligand to confer resistance [60]: 0.94
